{
  "source": "ChEMBL document CHEMBL4706623",
  "about": "“GPR52 Antagonist Reduces Huntingtin Levels and Ameliorates Huntington's Disease-Related Phenotypes” (J Med Chem, 2021)",
  "key": {"[1]": {"target": "G-protein coupled receptor 52 (Mus musculus) (UniProt P0C5J4)", "sequence (P0C5J4 whole entry)": "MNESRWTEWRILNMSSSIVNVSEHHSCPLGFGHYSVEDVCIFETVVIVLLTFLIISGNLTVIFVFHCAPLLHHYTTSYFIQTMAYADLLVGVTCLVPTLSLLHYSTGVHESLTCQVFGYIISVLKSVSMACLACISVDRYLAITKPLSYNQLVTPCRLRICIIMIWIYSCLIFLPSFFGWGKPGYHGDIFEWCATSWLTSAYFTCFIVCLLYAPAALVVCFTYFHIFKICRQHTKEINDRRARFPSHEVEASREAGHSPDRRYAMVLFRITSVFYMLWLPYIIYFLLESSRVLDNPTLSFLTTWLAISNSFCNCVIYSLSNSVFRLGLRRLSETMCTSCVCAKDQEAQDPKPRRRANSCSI", "assay": "In vivo antagonist activity at GPR52 in HdhQ140 knock-in mouse model assessed as reduction in mHTT aggregate levels in striatum at 0.5 mM, icv QD for 3 weeks by S380 antibody based immunostaining based analysis", "assay_type": "functional"}, "[2]": {"target": "G-protein coupled receptor 52 (Mus musculus) (UniProt P0C5J4)", "assay": "Antagonist activity at GPR52 in neurons from HdhQ7/Q140 mouse assessed as decrease in mHTT levels at 0.1 to 3 uM incubated for 48 hrs in presence of 2B7-terbium and 2166-D2 antibodies by TR-FRET analysis", "assay_type": "tissue-based", "conditions": "Neuron, filed as antagonist, dose 0.1-3 µM"}, "STHdhQ7/111": {"test_system": "STHdhQ7/111", "assay": "Decrease in wild type HTT level in GPR52 knockdown mouse STHdhQ7/111 cells with at 1 to 10 uM incubated for 48 hrs in presence of 2B7-terbium and 2166-D2 antibodies by TR-FRET analysis", "assay_type": "functional, cell-based", "conditions": "dose 1-10 µM"}, "[3]": {"target": "G-protein coupled receptor 52 (Mus musculus) (UniProt P0C5J4)", "assay": "In vivo antagonist activity at GPR52 in wild type mouse model assessed as reduction in soluble mHTT levels at 5 mg/kg, iv QD for 4 weeks by TR-FRET analysis", "assay_type": "functional, organism-based"}, "Mus musculus [4]": {"test_system": "Mus musculus", "assay": "Neuroprotective activity in HdhQ140 mouse model assessed as rescue of motor deficiency by measuring crossing time at 5 mg/kg, iv QD for 4 weeks by balance beam test", "assay_type": "functional, organism-based"}, "[5]": {"target": "G-protein coupled receptor 52 (Mus musculus) (UniProt P0C5J4)", "assay": "In vivo antagonist activity at GPR52 in HdhQ140 knock-in mouse model assessed as reduction in mHTT aggregate levels in cortex in presence of 4C9 antibody labelled with D2 fluorophore at 5 mg/kg, iv QD for 4 weeks by TR-FRET analysis", "assay_type": "functional, organism-based"}, "Mus musculus [6]": {"test_system": "Mus musculus", "assay": "Neuroprotective activity in HdhQ140 knock-in mouse model assessed as decrease in staining intensity of microglia in striatum at 5 mg/kg, iv QD for 4 weeks by Iba1 staining based immunostaining analysis", "assay_type": "functional, organism-based"}, "[7]": {"target": "G-protein coupled receptor 52 (Mus musculus) (UniProt P0C5J4)", "assay": "Antagonist activity at GPR52 in mouse STHdhQ7/111 cells assessed as decrease in mHTT levels incubated for 48 hrs in presence of 2B7-terbium and 2166-D2 antibodies by TR-FRET", "assay_type": "cell-based", "conditions": "filed as antagonist, dose 0.3-10 µM"}, "[8]": {"target": "Glucagon receptor (Homo sapiens) (UniProt P47871)", "sequence (P47871 whole entry)": "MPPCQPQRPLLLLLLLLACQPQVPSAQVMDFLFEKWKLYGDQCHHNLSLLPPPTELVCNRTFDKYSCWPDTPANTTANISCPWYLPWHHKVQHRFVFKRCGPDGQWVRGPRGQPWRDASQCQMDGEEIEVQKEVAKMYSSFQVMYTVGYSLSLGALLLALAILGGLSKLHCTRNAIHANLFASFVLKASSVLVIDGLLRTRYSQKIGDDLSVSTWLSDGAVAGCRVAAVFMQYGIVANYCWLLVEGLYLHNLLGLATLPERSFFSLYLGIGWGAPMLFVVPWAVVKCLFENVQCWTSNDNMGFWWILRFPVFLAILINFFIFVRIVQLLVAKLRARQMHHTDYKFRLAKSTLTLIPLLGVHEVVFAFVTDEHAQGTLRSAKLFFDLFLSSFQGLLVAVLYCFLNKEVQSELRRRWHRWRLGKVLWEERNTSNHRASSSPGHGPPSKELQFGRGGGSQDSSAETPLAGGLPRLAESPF", "assay": "Antagonist activity at GCGR (unknown origin) expressed in HEK293 cells assessed as inhibition of glucagon-induced cAMP accumulation", "assay_type": "functional, cell-based"}, "[9]": {"assay": "Drug uptake in wild type mouse brain at 5 mg/kg, iv measured 0.5 to 6 hrs", "assay_type": "ADME, organism-based", "conditions": "in vivo, time 0.5-6 hrs, read-out: Drug uptake"}, "[10]": {"target": "G-protein coupled receptor 52 (Mus musculus) (UniProt P0C5J4)", "assay": "In vivo antagonist activity at GPR52 in HdhQ140 knock-in mouse model assessed as reduction in mHTT levels in cortex at 0.5 mM, icv QD for 3 weeks by TR-FRET analysis", "assay_type": "functional"}, "[11]": {"target": "G-protein coupled receptor 52 (Mus musculus) (UniProt P0C5J4)", "assay": "Antagonist activity at GPR52 in neurons from HdhQ7/Q140 mouse assessed as decrease in mHTT levels at 0.3 to 3 uM incubated for 48 hrs in presence of 2B7-terbium and 2166-D2 antibodies by western blot analysis", "conditions": "Neuron, filed as antagonist, dose 0.3-3 µM"}, "[12]": {"target": "C-C chemokine receptor type 5 (Homo sapiens) (UniProt P51681)", "sequence (P51681 whole entry, looked up)": "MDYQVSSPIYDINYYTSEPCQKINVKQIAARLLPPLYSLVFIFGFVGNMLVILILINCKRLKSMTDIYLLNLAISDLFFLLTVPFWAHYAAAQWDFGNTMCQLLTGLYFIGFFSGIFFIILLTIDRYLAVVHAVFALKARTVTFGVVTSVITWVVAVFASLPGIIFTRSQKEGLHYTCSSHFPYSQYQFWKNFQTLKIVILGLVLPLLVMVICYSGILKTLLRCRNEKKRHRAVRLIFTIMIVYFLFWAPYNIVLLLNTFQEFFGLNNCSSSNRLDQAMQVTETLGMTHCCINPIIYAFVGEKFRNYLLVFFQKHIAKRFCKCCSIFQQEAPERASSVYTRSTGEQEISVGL", "assay": "Antagonist activity at CCR5 (unknown origin) expressed in HEK293 cells assessed as inhibition of […] cAMP accumulation", "assay_type": "functional, cell-based"}, "[13]": {"target": "G-protein coupled receptor 52 (Mus musculus) (UniProt P0C5J4)", "assay": "In vivo antagonist activity at GPR52 in HdhQ140 knock-in mouse model assessed as reduction in mHTT aggregate levels in striatum in presence of 4C9 antibody labelled with D2 fluorophore at 5 mg/kg, iv QD for 4 weeks by TR-FRET analysis", "assay_type": "functional, organism-based"}, "[14]": {"target": "G-protein coupled receptor 52 (Mus musculus) (UniProt P0C5J4)", "assay": "Antagonist activity at GPR52 in mouse STHdhQ7/111 cells assessed as decrease in mHTT levels at 1 to 10 uM incubated for 48 hrs in presence of 2B7-terbium and 2166-D2 antibodies by western blot analysis", "assay_type": "cell-based", "conditions": "filed as antagonist, dose 1-10 µM"}, "[15]": {"target": "G-protein coupled receptor 52 (Mus musculus) (UniProt P0C5J4)", "assay": "In vivo antagonist activity at GPR52 in wild type mouse model assessed as reduction in mHTT aggregate levels in cortex in presence of 4C9 antibody labelled with terbium at 5 mg/kg, iv QD for 4 weeks by TR-FRET analysis", "assay_type": "functional, organism-based"}, "[16]": {"assay": "Neurotoxicity in wild type mouse assessed as effect on motor deficiency by measuring crossing time at 5 mg/kg, iv QD for 4 weeks by balance beam test", "assay_type": "toxicity, organism-based", "conditions": "in vivo, 672 h"}, "[17]": {"target": "G-protein coupled receptor 52 (Mus musculus) (UniProt P0C5J4)", "assay": "In vivo antagonist activity at GPR52 in wild type mouse model assessed as reduction in wild type HTT levels at 0.5 mM, icv QD for 3 weeks by TR-FRET analysis", "assay_type": "functional"}, "[18]": {"target": "G-protein coupled receptor 52 (Mus musculus) (UniProt P0C5J4)", "assay": "In vivo antagonist activity at GPR52 in HdhQ140 knock-in mouse model assessed as reduction in mHTT aggregate levels in cortex in presence of 4C9 antibody labelled with terbium at 5 mg/kg, iv QD for 4 weeks by TR-FRET analysis", "assay_type": "functional, organism-based"}, "[19]": {"target": "G-protein coupled receptor 52 (Mus musculus) (UniProt P0C5J4)", "assay": "In vivo antagonist activity at GPR52 in HdhQ140 knock-in mouse model assessed as reduction in mHTT levels in striatum at 0.5 mM, icv QD for 3 weeks by TR-FRET analysis", "assay_type": "functional"}, "[20]": {"target": "G-protein coupled receptor 52 (Mus musculus) (UniProt P0C5J4)", "assay": "In vivo antagonist activity at GPR52 in wild type mouse model assessed as reduction in mHTT aggregate levels in striatum in presence of 4C9 antibody labelled with D2 fluorophore at 5 mg/kg, iv QD for 4 weeks by TR-FRET analysis", "assay_type": "functional, organism-based"}, "[21]": {"assay": "Neurotoxicity in wild type mouse assessed as motor deficiency by measuring latency to fall at 5 mg/kg, iv QD for 4 weeks by rotarod test", "assay_type": "toxicity, organism-based", "conditions": "in vivo, 672 h"}, "[22]": {"target": "Glucagon-like peptide 1 receptor (Homo sapiens) (UniProt P43220)", "sequence (P43220 whole entry)": "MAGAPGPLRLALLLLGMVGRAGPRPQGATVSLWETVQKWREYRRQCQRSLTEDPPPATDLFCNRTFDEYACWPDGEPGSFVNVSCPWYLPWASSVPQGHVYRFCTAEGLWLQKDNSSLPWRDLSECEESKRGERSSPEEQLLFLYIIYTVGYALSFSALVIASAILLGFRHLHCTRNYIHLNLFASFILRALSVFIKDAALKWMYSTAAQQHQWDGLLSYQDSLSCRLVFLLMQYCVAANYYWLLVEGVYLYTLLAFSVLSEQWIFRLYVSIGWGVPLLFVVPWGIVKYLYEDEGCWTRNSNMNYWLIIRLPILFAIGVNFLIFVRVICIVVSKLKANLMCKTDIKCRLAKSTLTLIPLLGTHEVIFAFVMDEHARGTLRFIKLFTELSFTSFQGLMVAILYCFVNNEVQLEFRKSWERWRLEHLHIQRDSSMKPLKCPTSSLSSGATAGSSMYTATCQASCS", "assay": "Antagonist activity at GLP-1R (unknown origin) expressed in HEK293 cells assessed as inhibition of GLP1-induced cAMP accumulation", "assay_type": "functional, cell-based"}, "[23]": {"target": "G-protein coupled receptor 52 (Mus musculus) (UniProt P0C5J4)", "assay": "Antagonist activity at GPR52 in neurons from HdhQ7/Q140 mouse assessed as decrease in wild type HTT levels at 0.3 to 3 uM incubated for 48 hrs in presence of 2B7-terbium and 2166-D2 antibodies by western blot analysis", "assay_type": "tissue-based", "conditions": "Neuron, filed as antagonist, dose 0.3-3 µM"}, "[24]": {"target": "G-protein coupled receptor 52 (Mus musculus) (UniProt P0C5J4)", "assay": "In vivo antagonist activity at GPR52 in wild type mouse model assessed as reduction in mHTT aggregate levels in striatum in presence of 4C9 antibody labelled with terbium at 5 mg/kg, iv QD for 4 weeks by TR-FRET analysis", "assay_type": "functional, organism-based"}, "[25]": {"target": "G-protein coupled receptor 52 (Mus musculus) (UniProt P0C5J4)", "assay": "In vivo antagonist activity at GPR52 in wild type mouse model assessed as reduction in mHTT aggregate levels in cortex in presence of 4C9 antibody labelled with D2 fluorophore at 5 mg/kg, iv QD for 4 weeks by TR-FRET analysis", "assay_type": "functional, organism-based"}, "Mus musculus [26]": {"test_system": "Mus musculus", "assay": "Neuroprotective activity in HdhQ140 knock-in mouse model assessed as decrease in staining intensity of microglia in striatum at 0.5 mM, icv QD for 3 weeks by Iba1staining based immunostaining analysis", "assay_type": "functional, organism-based"}, "[27]": {"target": "G-protein coupled receptor 52 (Mus musculus) (UniProt P0C5J4)", "assay": "Antagonist activity at GPR52 in mouse STHdhQ7/111 cells assessed as decrease in wild type HTT levels at 1 to 10 uM incubated for 48 hrs in presence of 2B7-terbium and 2166-D2 antibodies by western blot analysis", "assay_type": "cell-based", "conditions": "filed as antagonist, dose 1-10 µM"}, "Mus musculus [28]": {"test_system": "Mus musculus", "assay": "Neuroprotective activity in HdhQ140 mouse model assessed as latency to fall at 5 mg/kg, iv QD for 4 weeks by rotarod test", "assay_type": "functional, organism-based"}},
  "note": "The source made the active and inactive calls. The rule behind the calls is not given here.",
  "data": [
    {"smiles": "O=C(/C=C/CCc1ccccc1)c1ccco1", "values": [
      {"measurement": "Activity", "setting": "[1]", "result": "Active"},
      {"measurement": "Activity", "setting": "[2]", "result": "Active"},
      {"measurement": "Activity", "setting": "STHdhQ7/111", "result": "inactive"},
      {"measurement": "Activity", "setting": "[3]", "result": "inactive"},
      {"measurement": "Activity", "setting": "Mus musculus [4]", "result": "Active"},
      {"measurement": "Activity", "setting": "[5]", "result": "inactive"},
      {"measurement": "Activity", "setting": "Mus musculus [6]", "result": "Active"},
      {"measurement": "Activity", "setting": "[7]", "result": "Dose-dependent effect"},
      {"measurement": "Activity", "setting": "[8]", "result": "inactive"},
      {"measurement": "concentration", "setting": "[9]", "result": 20, "unit": "nM"},
      {"measurement": "Activity", "setting": "[10]", "result": "inactive"},
      {"measurement": "Activity", "setting": "[11]", "result": "Active"},
      {"measurement": "Activity", "setting": "[12]", "result": "inactive"},
      {"measurement": "Activity", "setting": "[13]", "result": "Active"},
      {"measurement": "Activity", "setting": "[14]", "result": "Active"},
      {"measurement": "Activity", "setting": "[15]", "result": "inactive"},
      {"measurement": "Activity", "setting": "[16]", "result": "Non-Toxic"},
      {"measurement": "Activity", "setting": "[17]", "result": "inactive"},
      {"measurement": "Activity", "setting": "[18]", "result": "inactive"},
      {"measurement": "Activity", "setting": "[19]", "result": "Active"},
      {"measurement": "Activity", "setting": "[20]", "result": "inactive"},
      {"measurement": "Activity", "setting": "[21]", "result": "Non-Toxic"},
      {"measurement": "Activity", "setting": "[22]", "result": "inactive"},
      {"measurement": "Activity", "setting": "[23]", "result": "Active"},
      {"measurement": "Activity", "setting": "[24]", "result": "inactive"},
      {"measurement": "Activity", "setting": "[25]", "result": "inactive"},
      {"measurement": "Activity", "setting": "Mus musculus [26]", "result": "Active"},
      {"measurement": "Activity", "setting": "[27]", "result": "Active"},
      {"measurement": "Activity", "setting": "Mus musculus [28]", "result": "Active"}
    ]}
  ]
}
